Test results: the supplement of paper PMC10307832

Assays:
Experiment in all cases: relative viability (nuclei count vs DMSO), 5 days (fraction); higher = more cells survive
NCI-H23 = tested on: NCI-H23
Method in brief: (§1)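 Each reported value is a median over duplicate plates. It expresses relative viability: treated-well nuclei count divided by vehicle-well nuclei count. Lung cancer cell lines in 1536-well plates were dosed by pin tool a day after seeding, alone with one drug or with a fixed anchor-drug dose plus five library-drug doses (not always all listed) in √10 steps, and nuclei were counted after 5 days.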

NCI-H441 = tested on: NCI-H441
Method in brief: as §1

UMC-11 = tested on: UMC-11
Method in brief: as §1

PC-3 [JPC-3] = tested on: PC-3 [JPC-3]
Method in brief: as §1

NCI-H2228 = tested on: NCI-H2228
Method in brief: as §1

NCI-H727 = tested on: NCI-H727
Method in brief: as §1

H3255 = tested on: H3255
Method in brief: as §1

EPLC-272H = tested on: EPLC-272H
Method in brief: as §1

LOU-NH91 = tested on: LOU-NH91
Method in brief: as §1

NCI-H2087 = tested on: NCI-H2087
Method in brief: as §1

NCI-H2085 = tested on: NCI-H2085
Method in brief: as §1

SW 1573 = tested on: SW 1573
Method in brief: as §1

NCI-H1975 = tested on: NCI-H1975
Method in brief: as §1

NCI-H1650 = tested on: NCI-H1650
Method in brief: as §1

NCI-H650 = tested on: NCI-H650
Method in brief: as §1

LC-2-ad = tested on: LC-2-ad
Method in brief: as §1

NCI-H1651 = tested on: NCI-H1651
Method in brief: as §1

NCI-H838 = tested on: NCI-H838
Method in brief: as §1

NCI-H2009 = tested on: NCI-H2009
Method in brief: as §1

HARA = tested on: HARA
Method in brief: as §1

NCI-H2023 = tested on: NCI-H2023
Method in brief: as §1

CCNC(=O)c1noc(-c2cc(C(C)C)c(O)cc2O)c1-c1ccc(CN2CCOCC2)cc1 [Luminespib] + CC(C)C[C@H](NC(=O)[C@H](Cc1ccccc1)NC(=O)c1cnccn1)B(O)O [Bortezomib] (partner 0.002 µM)
relative viability (NCI-H23; first compound 0.002 µM): 1.23 | relative viability (NCI-H23; first compound 0.006325 µM): 1.05 | relative viability (NCI-H23; first compound 0.02 µM): 0.733 | relative viability (NCI-H23; first compound 0.06325 µM): 0.119 | relative viability (NCI-H23; first compound 0.2 µM): 0.117 | relative viability (NCI-H441; first compound 0.002 µM): 0.566 | relative viability (NCI-H441; first compound 0.006325 µM): 0.446 | relative viability (NCI-H441; first compound 0.02 µM): 0.236 | relative viability (NCI-H441; first compound 0.06325 µM): 0.127 | relative viability (NCI-H441; first compound 0.2 µM): 0.133 | relative viability (UMC-11; first compound 0.002 µM): 0.838 | relative viability (UMC-11; first compound 0.006325 µM): 0.616 | relative viability (UMC-11; first compound 0.02 µM): 0.365 | relative viability (UMC-11; first compound 0.06325 µM): 0.226 | relative viability (UMC-11; first compound 0.2 µM): 0.087 | relative viability (PC-3 [JPC-3]; first compound 0.002 µM): 0.865 | relative viability (PC-3 [JPC-3]; first compound 0.006325 µM): 0.812 | relative viability (PC-3 [JPC-3]; first compound 0.02 µM): 0.977 | relative viability (PC-3 [JPC-3]; first compound 0.06325 µM): 0.942 | relative viability (PC-3 [JPC-3]; first compound 0.2 µM): 0.503 | relative viability (NCI-H2228; first compound 0.002 µM): 0.985 | relative viability (NCI-H2228; first compound 0.006325 µM): 0.952 | relative viability (NCI-H2228; first compound 0.02 µM): 0.166 | relative viability (NCI-H2228; first compound 0.06325 µM): 0.196 | relative viability (NCI-H2228; first compound 0.2 µM): 0.184 | relative viability (NCI-H727; first compound 0.002 µM): 0.802 | relative viability (NCI-H727; first compound 0.006325 µM): 0.782 | relative viability (NCI-H727; first compound 0.02 µM): 0.379 | relative viability (NCI-H727; first compound 0.06325 µM): 0.23 | relative viability (NCI-H727; first compound 0.2 µM): 0.215 | relative viability (H3255; first compound 0.002 µM): 0.615 | relative viability (H3255; first compound 0.006325 µM): 0.466 | relative viability (H3255; first compound 0.02 µM): 0.472 | relative viability (H3255; first compound 0.06325 µM): 0.376 | relative viability (H3255; first compound 0.2 µM): 0.194 | relative viability (EPLC-272H; first compound 0.006325 µM): 0.83 | relative viability (EPLC-272H; first compound 0.02 µM): 0.678 | relative viability (EPLC-272H; first compound 0.06325 µM): 0.913 | relative viability (EPLC-272H; first compound 0.2 µM): 0.293 | relative viability (LOU-NH91; first compound 0.002 µM): 0.513 | relative viability (LOU-NH91; first compound 0.006325 µM): 0.484 | relative viability (LOU-NH91; first compound 0.02 µM): 0.518 | relative viability (LOU-NH91; first compound 0.06325 µM): 0.451 | relative viability (LOU-NH91; first compound 0.2 µM): 0.389 | relative viability (NCI-H2087; first compound 0.002 µM): 1.03 | relative viability (NCI-H2087; first compound 0.006325 µM): 0.676 | relative viability (NCI-H2087; first compound 0.02 µM): 0.796 | relative viability (NCI-H2087; first compound 0.06325 µM): 0.141 | relative viability (NCI-H2087; first compound 0.2 µM): 0.142 | relative viability (NCI-H2085; first compound 0.002 µM): 0.979 | relative viability (NCI-H2085; first compound 0.006325 µM): 0.94 | relative viability (NCI-H2085; first compound 0.02 µM): 0.818 | relative viability (NCI-H2085; first compound 0.06325 µM): 0.509 | relative viability (NCI-H2085; first compound 0.2 µM): 0.344 | relative viability (SW 1573; first compound 0.002 µM): 1.07 | relative viability (SW 1573; first compound 0.006325 µM): 0.941 | relative viability (SW 1573; first compound 0.02 µM): 0.96 | relative viability (SW 1573; first compound 0.06325 µM): 0.117 | relative viability (SW 1573; first compound 0.2 µM): 0.114 | relative viability (NCI-H1975; first compound 0.002 µM): 0.444 | relative viability (NCI-H1975; first compound 0.006325 µM): 0.389 | relative viability (NCI-H1975; first compound 0.02 µM): 0.219 | relative viability (NCI-H1975; first compound 0.06325 µM): 0.149 | relative viability (NCI-H1975; first compound 0.2 µM): 0.119 | relative viability (NCI-H1650; first compound 0.002 µM): 0.209 | relative viability (NCI-H1650; first compound 0.006325 µM): 0.193 | relative viability (NCI-H1650; first compound 0.02 µM): 0.201 | relative viability (NCI-H1650; first compound 0.06325 µM): 0.222 | relative viability (NCI-H1650; first compound 0.2 µM): 0.194 | relative viability (NCI-H650; first compound 0.002 µM): 0.737 | relative viability (NCI-H650; first compound 0.006325 µM): 0.716 | relative viability (NCI-H650; first compound 0.02 µM): 0.651 | relative viability (NCI-H650; first compound 0.06325 µM): 0.124 | relative viability (NCI-H650; first compound 0.2 µM): 0.103 | relative viability (LC-2-ad; first compound 0.002 µM): 0.733 | relative viability (LC-2-ad; first compound 0.006325 µM): 1.02 | relative viability (LC-2-ad; first compound 0.02 µM): 1.1 | relative viability (LC-2-ad; first compound 0.06325 µM): 0.133 | relative viability (LC-2-ad; first compound 0.2 µM): 0.0947 | relative viability (NCI-H1651; first compound 0.002 µM): 0.947 | relative viability (NCI-H1651; first compound 0.006325 µM): 0.864 | relative viability (NCI-H1651; first compound 0.02 µM): 0.91 | relative viability (NCI-H1651; first compound 0.06325 µM): 0.89 | relative viability (NCI-H1651; first compound 0.2 µM): 0.793 | relative viability (NCI-H838; first compound 0.002 µM): 0.877 | relative viability (NCI-H838; first compound 0.006325 µM): 0.723 | relative viability (NCI-H838; first compound 0.02 µM): 0.389 | relative viability (NCI-H838; first compound 0.06325 µM): 0.0924 | relative viability (NCI-H838; first compound 0.2 µM): 0.0934 | relative viability (NCI-H2009; first compound 0.002 µM): 1.16 | relative viability (NCI-H2009; first compound 0.006325 µM): 0.841 | relative viability (NCI-H2009; first compound 0.02 µM): 0.956 | relative viability (NCI-H2009; first compound 0.06325 µM): 0.0583 | relative viability (NCI-H2009; first compound 0.2 µM): 0.0609 | relative viability (HARA; first compound 0.002 µM): 1.12 | relative viability (HARA; first compound 0.006325 µM): 1 | relative viability (HARA; first compound 0.02 µM): 1.14 | relative viability (HARA; first compound 0.06325 µM): 0.474 | relative viability (HARA; first compound 0.2 µM): 0.0833 | relative viability (NCI-H2023; first compound 0.002 µM): 1.04 | relative viability (NCI-H2023; first compound 0.006325 µM): 0.958 | relative viability (NCI-H2023; first compound 0.02 µM): 0.29 | relative viability (NCI-H2023; first compound 0.06325 µM): 0.069 | relative viability (NCI-H2023; first compound 0.2 µM): 0.0759
